Measured values as given in patent publication US20220168268A1, “SMALL-MOLECULE INHIBITOR OF PD-1/PD-L1, PHARMACEUTICAL COMPOSITION THEREOF WITH PD-L1 ANTIBODY, AND APPLICATION OF SAME” (Guangzhou Maxinovel Pharmaceuticals Co., Ltd., priority 2019, published 2022).

Target: T1, PD-1/PD-L1 (Homo sapiens, UniProt Q9NZQ7)
T1 construct: unspecified kit tag (tag1 or tag2, recognised by the detection antibodies); purchased CisBio 64CUS000C-1
Assay: Homogeneous Time-Resolved Fluorescence (HTRF) PD-1/PD-L1 binding assay
Settings: CisBio kit
Experimental: Homogenouse Time-Resolved Fluorescence (HTRF) binding assay was used to determine the binding activity of the compound of the present disclosure to PD-1/PD-L1.
The purchased kit (CisBio, #64CUS000C-1) contained the reagents required for experiments such as PD-1, PD-L1, anti-tagl-Eu, Anti-tag2-XL665, Dilute Buffer and Detection Buffer.
1. The compound was formulated to 10 concentrations with a three-fold concentration gradient with 100% DMSO.
2. The solution of the compound in DMSO was added to Dilute Buffer, and mixed evenly and then transferred to a 96-well plate.
3. PD-L1 was diluted with Dilute Buffer and added to the 96-well plate above.
4. PD-1 was diluted with Dilute Buffer, then added to the 96-well plate above and incubated at room temperature for 30 minutes.
5. One portion of anti-tag1-Eu and one portion of anti-tag2-XL665 were added to Detection Buffer, mixed evenly and transferred to the 96-well plate above.
6. The mixed solution in the 96-well plate were incubated at room temperature for 1 to 24 hours.
7. HTRF values were read by Envision.

T1 sequence (Q9NZQ7 19-238 limits assumed): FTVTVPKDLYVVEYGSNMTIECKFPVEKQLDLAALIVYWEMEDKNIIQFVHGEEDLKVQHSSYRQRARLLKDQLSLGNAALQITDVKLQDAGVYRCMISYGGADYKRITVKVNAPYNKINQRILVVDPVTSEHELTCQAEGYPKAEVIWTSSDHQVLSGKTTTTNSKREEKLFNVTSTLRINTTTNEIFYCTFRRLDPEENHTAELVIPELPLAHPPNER

Row | IC50 | Compound
1 | 14 nM | Cc1c(/C=C/c2cc(CNC(CO)C(=O)O)ccc2C(F)(F)F)cccc1-c1ccc2c(c1)OCCO2 (stereo not drawn) [Compound 1, (E)-2-(3-(3-(2,3-dihydrobenzo[b][1,4]dioxin-6-yl)-2-methylstyryl)-4-(trifluoromethyl)benzylamino)-3-hydroxypropanoic Acid]
2 | 3100 nM | COc1ccc(-c2cccc(/C=C/c3cc(CNC(C)(CO)C(=O)O)ccc3C)c2C)cc1 (stereo not drawn) [Compound 2, (E)-2-((3-(2-(4′-methoxy-2-methylbiphenyl-3-yl)vinyl)-4-methylbenzyl)amino)-3-hydroxy-2-methylpropanoic Acid]
3 | 46 nM | Cc1c(/C=C/c2cc(CNC(C)(CO)C(=O)O)ccc2C(F)(F)F)cccc1-c1cccc(F)c1 (stereo not drawn) [Compound 3, (E)-2-(3-(2-(3′-fluoro-2-methylbiphenyl-3-yl)vinyl)-4-(trifluoromethyl)benzylamino)-3-hydroxy-2-methylpropanoic Acid]
4 | 23 nM | Cc1c(/C=C/c2cc(CNC(C)(CO)C(=O)O)ccc2C(F)(F)F)cccc1-c1ccccc1 (stereo not drawn) [Compound 5, (E)-2-(3-(2-(2-methylbiphenyl-3-yl)vinyl)-4-(trifluoromethyl)benzylamino)-3-hydroxy-2-methylpropanoic Acid]
5 | 320 nM | Cc1c(/C=C/c2cc(CNC(C)(CO)C(=O)O)ccc2C(F)(F)F)cccc1-c1ccc(F)cc1 (stereo not drawn) [Compound 6, (E)-2-(3-(2-(4′-fluoro-2-methylbiphenyl-3-yl)vinyl)-4-(trifluoromethyl)benzylamino)-3-hydroxy-2-methylpropanoic Acid]
6 | 1400 nM | Cc1ccc(CNC(C)(CO)C(=O)O)cc1/C=C/c1cccc(-c2ccc(F)cc2)c1C (stereo not drawn) [Compound 7, (E)-2-(3-(2-(4′-fluoro-2-methylbiphenyl-3-yl)vinyl)-4-methylbenzylamino)-3-hydroxy-2-methylpropanoic Acid]
7 | 42 nM | Cc1ccc(CNC(C)(CO)C(=O)O)cc1/C=C/c1cccc(-c2ccccc2)c1C (stereo not drawn) [Compound 8, (E)-2-(3-(2-(2-methylbiphenyl-3-yl)vinyl)-4-methylbenzylamino)-3-hydroxy-2-methylpropanoic Acid]
8 | 57 nM | Cc1ccc(CNC(C)(CO)C(=O)O)cc1/C=C/c1cccc(-c2cccc(F)c2)c1C (stereo not drawn) [Compound 9]
9 | 24 nM | Cc1c(/C=C/c2cc(CNC(CO)C(=O)O)ccc2F)cccc1-c1ccc2c(c1)OCCO2 (stereo not drawn) [Compound 12, (E)-2-(3-(3-(2,3-dihydrobenzo[b][1,4]dioxin-6-yl)-2-methylstyryl)-4-fluorobenzylamino)-3-hydroxypropanoic Acid]
10 | 19 nM | Cc1ccc(CN[C@@H](CO)C(=O)O)cc1/C=C/c1cccc(-c2ccc3c(c2F)OCCO3)c1C [Compound 14, (S,E)-2-(3-(3-(5-fluoro-2,3-dihydrobenzo[b][1,4]dioxin-6-yl)-2-methylstyryl)-4-methylbenzylamino)-3-hydroxypropanoic Acid]
11 | 14 nM | Cc1c(/C=C/c2cc(CNC(CO)C(=O)O)ccc2C(F)(F)F)cccc1-c1cccc(F)c1F (stereo not drawn) [Compound 15, (E)-2-(3-(2-(2′,3′-difluoro-2-methylbiphenyl-3-yl)vinyl)-4-(trifluoromethyl)benzylamino)-3-hydroxypropanoic Acid]
12 | 13 nM | Cc1c(/C=C/c2cc(CN[C@@H](CO)C(=O)O)ccc2C(F)(F)F)cccc1-c1ccc2c(c1F)OCCO2 [Compound 16]
13 | 20 nM | Cc1c(/C=C/c2cc(CNC(C)(CO)C(=O)O)ccc2C(F)(F)F)cccc1-c1ccccc1F (stereo not drawn) [Compound 17, (E)-2-(3-(2-(2′-fluoro-2-methylbiphenyl-3-yl)vinyl)-4-(trifluoromethyl)benzylamino)-3-hydroxy-2-methylpropanoic Acid]
14 | 46 nM | Cc1c(CCc2cc(CNC(CO)C(=O)O)ccc2C(F)(F)F)cccc1-c1ccccc1 (stereo not drawn) [Compound 18, 2-(3-(2-(2-Methylbiphenyl-3-yl)ethyl)-4-(trifluoromethyl)benzylamino)-3-hydroxypropanoic Acid]
15 | 61 nM | Cc1c(/C=C/c2cc(CNC(CO)(CO)C(=O)O)ccc2C(F)(F)F)cccc1-c1ccccc1 [Compound 19, (E)-2-(3-(2-(2-methylbiphenyl-3-yl)vinyl)-4-(trifluoromethyl)benzylamino)-3-hydroxy-2-hydroxymethylpropanoic Acid]
16 | 18 nM | Cc1c(/C=C/c2cc(CNC(C)(CO)C(=O)O)ccc2C(F)(F)F)cccc1-c1ccc2c(c1F)OCCO2 (stereo not drawn) [Compound 20, (E)-2-(3-(3-(5-fluoro-2,3-dihydrobenzo[b][1,4]dioxin-6-yl)-2-methylstyryl)-4-(trifluoromethyl)benzylamino)-3-hydroxy-2-methylpropanoic Acid]
17 | 85 nM | Cc1c(CCc2cc(CNC(C)(CO)C(=O)O)ccc2C(F)(F)F)cccc1-c1ccccc1 (stereo not drawn) [Compound 21, 2-(3-(2-(2-Methylbiphenyl-3-yl)ethyl)-4-(trifluoromethyl)benzylamino)-3-hydroxy-2-methylpropanoic Acid]

Row | IC50 | Compound
18 | 44 nM | Cc1c(CCc2cc(CNC(C)C(=O)O)ccc2C(F)(F)F)cccc1-c1ccccc1 (stereo not drawn) [Compound 22, 2-(3-(2-(2-Methylbiphenyl-3-yl)ethyl)-4-(trifluoromethyl)benzylamino) propanoic Acid]
19 | 26 nM | Cc1c(/C=C/c2cc(CNC(C)(CO)C(=O)O)ccc2C(F)(F)F)cccc1-c1cccc(F)c1F (stereo not drawn) [Compound 23, (E)-2-(3-(2-(2′,3′-difluoro-2-methylbiphenyl-3-yl)vinyl)-4-(trifluoromethyl)benzylamino)-3-hydroxy-2-methylpropanoic Acid]
20 | 430 nM | Cc1c(/C=C/c2cc(CNC(C)(CO)C(=O)O)cc3c2OCC3)cccc1-c1ccc2c(c1)OCCO2 (stereo not drawn) [Compound 24, (E)-2-((7-(3-(2,3-dihydrobenzo[b][1,4]dioxin-6-yl)-2-methylstyryl)-2,3-dihydrobenzofuran-5-yl)methylamino)-3-hydroxy-2-methylpropanoic Acid]
21 | 66 nM | Cc1c(/C=C/c2cc(CNC(C)(CO)C(=O)O)ccc2F)cccc1-c1ccc2c(c1)OCCO2 (stereo not drawn) [Compound 25, (E)-2-(3-(3-(2,3-dihydrobenzo[b][1,4]dioxin-6-yl)-2-methylstyryl)-4-fluorobenzylamino)-3-hydroxy-2-methylpropanoic Acid]
22 | 20 nM | Cc1ccc(CN[C@@](C)(CO)C(=O)O)cc1/C=C/c1cccc(-c2ccc3c(c2F)OCCO3)c1C [Compound 26, (S,E)-2-(3-(3-(5-fluoro-2,3-dihydrobenzo[b][1,4]dioxin-6-yl)-2-methylstyryl)-4-methylbenzylamino)-3-hydroxy-2-methylpropanoic Acid]
23 | 29 nM | Cc1ccc(CN[C@@](C)(CO)C(=O)O)cc1/C=C/c1cccc(-c2ccccc2)c1C [Compound 28, (S,E)-2-(3-(2-(2-methylbiphenyl-3-yl)vinyl)-4-methylbenzylamino)-3-hydroxy-2-methylpropanoic Acid]
24 | 27 nM | Cc1ccc(CN[C@@](C)(CO)C(=O)O)cc1/C=C/c1cccc(-c2ccc3c(c2F)OCCO3)c1C [Compound 30, (S,E)-2-(3-(3-(5-fluoro-2,3-dihydrobenzo[b][1,4]dioxin-6-yl)-2-methylstyryl)-4-methylbenzylamino)-3-hydroxy-2-methylpropanoic Acid]
25 | 41 nM | Cc1ccc(CN[C@@](C)(CO)C(=O)O)cc1/C=C/c1cccc(-c2ccccc2)c1C [Compound 31, (S,E)-2-(3-(2-(2-methylbiphenyl-3-yl)vinyl)-4-methylbenzylamino)-3-hydroxy-2-methylpropanoic Acid]
26 | 24 nM | Cc1c(/C=C/c2cc(C(C)NCC(=O)O)ccc2C(F)(F)F)cccc1-c1ccccc1 (stereo not drawn) [Compound 32, (E)-2-(1-(3-(2-(2-methylbiphenyl-3-yl)vinyl)-4-(trifluoromethyl)phenyl)ethylamino)acetic Acid]
27 | 230 nM | C[C@@](CO)(NCc1ccc(C(F)(F)F)c(/C=C/c2cccc(-c3ccccc3)c2F)c1)C(=O)O [Compound 33, (S,E)-2-(3-(2-(2-fluorobiphenyl-3-yl)vinyl)-4-(trifluoromethyl)benzylamino)-3-hydroxy-2-methylpropanoic Acid]
28 | 180 nM | C[C@](CO)(NCc1ccc(C(F)(F)F)c(/C=C/c2cccc(-c3ccccc3)c2F)c1)C(=O)O [Compound 34, (R,E)-2-(3-(2-(2-fluorobiphenyl-3-yl)vinyl)-4-(trifluoromethyl)benzylamino)-3-hydroxy-2-methylpropanoic Acid]
29 | 1100 nM | Cc1c(/C=C/c2cc(CN[C@@](C)(CO)C(=O)O)ccc2C(F)(F)F)cccc1-c1ccc2ncoc2c1 [Compound 35, (S,E)-2-(3-(3-(benzo[d]oxazol-6-yl)-2-methylstyryl)-4-(trifluoromethyl)benzylamino)-3-hydroxy-2-methylpropanoic Acid]
30 | > 10000 nM | Cc1c(/C=C/c2cc(CN[C@@](C)(CO)C(=O)O)ccc2C(F)(F)F)cccc1-c1ccc2nccn2c1 [Compound 36]
31 | 1300 nM | Cc1c(/C=C/c2cc(CN[C@@](C)(CO)C(=O)O)ccc2C(F)(F)F)cccc1-c1cn2ccnc2cn1 [Compound 37]
32 | > 10000 nM | Cc1c(/C=C/c2cc(CN[C@@](C)(CO)C(=O)O)ccc2C(F)(F)F)cccc1-c1ccc2cnoc2c1 [Compound 38, (S,E)-2-(3-(3-(benzo[d]isoxazol-6-yl)-2-methylstyryl)-4-(trifluoromethyl)benzylamino)-3-hydroxy-2-methylpropanoic Acid]
33 | 2200 nM | Cc1c(/C=C/c2cc(CN[C@@](C)(CO)C(=O)O)ccc2C(F)(F)F)cccc1-c1ccccn1 [Compound 39, (S,E)-3-hydroxy-2-methyl-2-(3-(2-methyl-3-(pyridin-2-yl)styryl)-4-(trifluoromethyl)benzylamino)propanoic Acid]
